Values belong to the molecule of their own block, whether it stands above or below them.
Assays:
[1] = PEG-bupivacaine conjugate hydrolysis drug release in pH 7.4 PBS buffer (Example 29); assay type: physicochemical; details: 37° C., about 2 mg/mL
Method: Preparation of isotonic phosphate buffer (0.01 mol/L, pH 7.4, PBS): 8.0 g of NaCl, 0.2 g of KH2PO4, 2.9 g of Na2HPO4.12H2O and 0.2 g of KCl are added sequentially to a quantitative container, and an appropriate amount of distilled water is added to dissolve, and then the volume is adjusted to 1000 mL and the obtained buffer is stored in a refrigerator at 4° C. for use.
Hydrolysis drug release for the PEG-bupivacaine conjugate: PEG-bupivacaine products (bupivacaine conjugate 6, prepared in Example 9 of the present invention; bupivacaine conjugate 10, prepared in Example 16 of the present invention) are dissolved in PBS buffer at about 2 mg/mL and placed in a water-bathing constant temperature vibrator at 37° C. Samples are taken at 0 h, 6 h, 12 h, 24 h, 48 h, 72 h, 96 h, 120 h and 144 h, and the content of free bupivacaine is determined by HPLC.

[2] = test system: SD rats; assay: Sensory block, hot plate paw withdrawal time, bupivacaine minimum/maximum analgesic dose test (Example 28); assay type: in vivo, rat
Source text: (§1) 1.3 Test substance: bupivacaine injection, diluted with physiological saline to the target concentration; the reference substance is physiological saline.
(§2) After the animals are anesthetized by intraperitoneal injection of 10% chloral hydrate solution, the sciatic nerve is exposed to the biceps and gluteus maximus joints of the hind limbs through surgery, and silicone flexible catheters of the same length (7 cm) are placed around the sciatic nerve. the other ends of the catheters are subcutaneously embedded in the back of the rat, and then sutured and fixed, and 0.2 mL of an antibiotic solution (5,000 U/ml penicillin G) is injected for anti-inflammatory.
After 2-3 days of catheterization, the SD rats with the body weight of 230-250 g and into which catheters are embedded are screened before the experiment by a hot plate method. The hot plate is heated to (56±1)° C., one of the hind paws of the rat is placed on the hot plate, and the other hind paw is placed in the laboratory room temperature condition, and the tested paw withdrawal time is observed and recorded. The average value of three times measured is recorded as a basic pain threshold.
(§3) Twenty-four qualified rats (animals with no dyskinesia and pain threshold change after catheterization) are randomly divided into 6 groups, 4 rats in each group, the first group is a control group, the experimental animals are administered with normal saline, and the other groups are administered with different doses of bupivacaine injection. Each group is injected with a corresponding drug through the catheter around the sciatic nerve.
The sensory block of the rats is examined by a hot plate method. The hot plate is heated to (56±1)° C., one of the hind paws of the rat is placed on the hot plate, and the other hind paw is placed at room temperature in the laboratory, the tested paw withdrawal time is observed and recorded. The average value of two to three times is recorded as a pain threshold. The paw withdrawal time of the hot plate method is recorded. In order to avoid the damage of the experimental animal body, if the rat has not withdrawal paw in the hot plate experiment for more than 15 s, the rat should be removed from the hot plate, and the experimental result is recorded as 15 s. The time point for determining the paw withdrawal time of the hot plate is before administration, and 5 minutes, 10 minutes, 30 minutes, 1 hour, and 2 hours after administration.

[3] = test system: SD rats; assay: Motor block four-level score, bupivacaine dose test (Example 28); assay type: in vivo, rat; design: key to motor function score: 1 = normal movement, 4 = complete loss of paw function
Source text: as §1, §2, §3
The exercise condition of each group of rats is evaluated by a motor block four-level scoring method. The scoring criteria are: paws can be dorsiflexed, stretched, valgus and other normal exercises, scored by 1 point; paws can be dorsiflexed, bendable or after the adduction, although the paws can be stretched, the stretching ability is weakened, scored by 2 points; the paws can perform dorsiflexion, but no longer has the ability to stretch, scored by 3 points; the paws completely lose the ability of dorsiflexion, curling and stretching, and the rats produce a gait defect, scored by 4 points. The time point for measuring the motor block score is before administration, and 5 min, 10 min, 30 min, 1 h, and 2 h after administration.

[4] = group 2, 3 mg/kg (0.66 mg/rat) trans-catheter, 0 min (before administration)
[5] = group 2, 3 mg/kg (0.66 mg/rat) trans-catheter, 5 min
[6] = group 2, 3 mg/kg (0.66 mg/rat) trans-catheter, 10 min
[7] = group 2, 3 mg/kg (0.66 mg/rat) trans-catheter, 30 min
[8] = group 2, 3 mg/kg (0.66 mg/rat) trans-catheter, 60 min
[9] = group 2, 3 mg/kg (0.66 mg/rat) trans-catheter, 120 min
[10] = group 3, 1 mg/kg (0.22 mg/rat) trans-catheter, 0 min (before administration)
[11] = group 3, 1 mg/kg (0.22 mg/rat) trans-catheter, 5 min
[12] = group 3, 1 mg/kg (0.22 mg/rat) trans-catheter, 10 min
[13] = group 3, 1 mg/kg (0.22 mg/rat) trans-catheter, 30 min
[14] = group 3, 1 mg/kg (0.22 mg/rat) trans-catheter, 60 min
[15] = group 3, 1 mg/kg (0.22 mg/rat) trans-catheter, 120 min
[16] = group 4, 0.3 mg/kg (0.066 mg/rat) trans-catheter, 0 min (before administration)
[17] = group 4, 0.3 mg/kg (0.066 mg/rat) trans-catheter, 5 min
[18] = group 4, 0.3 mg/kg (0.066 mg/rat) trans-catheter, 10 min
[19] = group 4, 0.3 mg/kg (0.066 mg/rat) trans-catheter, 30 min
[20] = group 4, 0.3 mg/kg (0.066 mg/rat) trans-catheter, 60 min
[21] = group 4, 0.3 mg/kg (0.066 mg/rat) trans-catheter, 120 min
[22] = group 5, 0.1 mg/kg (0.022 mg/rat) trans-catheter, 0 min (before administration)
[23] = group 5, 0.1 mg/kg (0.022 mg/rat) trans-catheter, 5 min
[24] = group 5, 0.1 mg/kg (0.022 mg/rat) trans-catheter, 10 min
[25] = group 5, 0.1 mg/kg (0.022 mg/rat) trans-catheter, 30 min
[26] = group 5, 0.1 mg/kg (0.022 mg/rat) trans-catheter, 60 min
[27] = group 5, 0.1 mg/kg (0.022 mg/rat) trans-catheter, 120 min
[28] = group 6, 0.03 mg/kg (0.0066 mg/rat) trans-catheter, 0 min (before administration)
[29] = group 6, 0.03 mg/kg (0.0066 mg/rat) trans-catheter, 5 min
[30] = group 6, 0.03 mg/kg (0.0066 mg/rat) trans-catheter, 10 min
[31] = group 6, 0.03 mg/kg (0.0066 mg/rat) trans-catheter, 30 min
[32] = group 6, 0.03 mg/kg (0.0066 mg/rat) trans-catheter, 60 min
[33] = group 6, 0.03 mg/kg (0.0066 mg/rat) trans-catheter, 120 min

Molecule: 8-Arm-PEG-Bupivacaine, 20K [bupivacaine conjugate 10]
PEG-bupivacaine hydrolysis rate ([1]; 0 h): 0.43% | PEG-bupivacaine hydrolysis rate ([1]; 6 h): 15.03% | PEG-bupivacaine hydrolysis rate ([1]; 12 h): 25.19% | PEG-bupivacaine hydrolysis rate ([1]; 24 h): 40.37% | PEG-bupivacaine hydrolysis rate ([1]; 48 h): 61.72% | PEG-bupivacaine hydrolysis rate ([1]; 72 h): 76.25% | PEG-bupivacaine hydrolysis rate ([1]; 96 h): 87.28% | PEG-bupivacaine hydrolysis rate ([1]; 120 h): 92.76% | PEG-bupivacaine hydrolysis rate ([1]; 144 h): 96.13%

motor block effect (summary) ([3]; 3 mg/kg (0.66 mg/rat) and 1 mg/kg (0.22 mg/rat)): motor block effect | motor nerve block effect (summary) ([3]; 0.3, 0.1, 0.03 mg/kg (ie, 0.066, 0.022, 0.0066 mg/rat)): no motor nerve block effect is observed | motor function score [3, 4]: 1 ± 0 | motor function score [3, 5]: 1 ± 0 | motor function score [3, 6]: 1.75 ± 0.5 | motor function score [3, 7]: 1.75 ± 0.5 | motor function score [3, 8]: 1.75 ± 0.5 | motor function score [3, 9]: 1 ± 0 | motor function score [3, 10]: 1 ± 0 | motor function score [3, 11]: 1.5 ± 0.58 | motor function score [3, 12]: 1.5 ± 0.58 | motor function score [3, 13]: 1.25 ± 0.5 | motor function score [3, 14]: 1 ± 0 | motor function score [3, 15]: 1 ± 0 | motor function score [3, 16]: 1 ± 0 | motor function score [3, 17]: 1 ± 0 | motor function score [3, 18]: 1 ± 0 | motor function score [3, 19]: 1 ± 0 | motor function score [3, 20]: 1 ± 0 | motor function score [3, 21]: 1 ± 0 | motor function score [3, 22]: 1 ± 0 | motor function score [3, 23]: 1 ± 0 | motor function score [3, 24]: 1 ± 0 | motor function score [3, 25]: 1 ± 0 | motor function score [3, 26]: 1 ± 0 | motor function score [3, 27]: 1 ± 0 | motor function score [3, 28]: 1 ± 0 | motor function score [3, 29]: 1 ± 0 | motor function score [3, 30]: 1 ± 0 | motor function score [3, 31]: 1 ± 0 | motor function score [3, 32]: 1 ± 0 | motor function score [3, 33]: 1 ± 0
Molecule: CCCCN1CCCCC1C(=O)Nc1c(C)cccc1C (centres unmarked) [bupivacaine]
hot plate paw withdrawal time [2, 4]: 3.26 ± 0.88 s | hot plate paw withdrawal time [2, 5]: 6.32 ± 2.29 s | hot plate paw withdrawal time [2, 6]: 7.7 ± 3.88 s | hot plate paw withdrawal time [2, 7]: 7.85 ± 3.36 s | hot plate paw withdrawal time [2, 8]: 5.91 ± 1.9 s | hot plate paw withdrawal time [2, 9]: 4.26 ± 1.42 s | hot plate paw withdrawal time [2, 10]: 2.75 ± 0.74 s | hot plate paw withdrawal time [2, 11]: 5.17 ± 5.41 s | hot plate paw withdrawal time [2, 12]: 7.13 ± 5.43 s | hot plate paw withdrawal time [2, 13]: 7.13 ± 4.01 s | hot plate paw withdrawal time [2, 14]: 3.24 ± 0.85 s | hot plate paw withdrawal time [2, 15]: 2.13 ± 0.8 s | hot plate paw withdrawal time [2, 16]: 3.42 ± 0.87 s | hot plate paw withdrawal time [2, 17]: 6.08 ± 1.68 s | hot plate paw withdrawal time [2, 18]: 7.11 ± 2.55 s | hot plate paw withdrawal time [2, 19]: 7.09 ± 1.45 s | hot plate paw withdrawal time [2, 20]: 3.62 ± 1.25 s | hot plate paw withdrawal time [2, 21]: 3.76 ± 0.69 s | hot plate paw withdrawal time [2, 22]: 3.08 ± 0.61 s | hot plate paw withdrawal time [2, 23]: 4.41 ± 3.24 s | hot plate paw withdrawal time [2, 24]: 4.22 ± 2.45 s | hot plate paw withdrawal time [2, 25]: 3.59 ± 1.89 s | hot plate paw withdrawal time [2, 26]: 2.63 ± 0.41 s | hot plate paw withdrawal time [2, 27]: 2.96 ± 1.38 s | hot plate paw withdrawal time [2, 28]: 3.06 ± 1.1 s | hot plate paw withdrawal time [2, 29]: 3.36 ± 0.91 s | hot plate paw withdrawal time [2, 30]: 2.67 ± 0.6 s | hot plate paw withdrawal time [2, 31]: 3.11 ± 1.22 s | hot plate paw withdrawal time [2, 32]: 2.66 ± 0.53 s | hot plate paw withdrawal time [2, 33]: 3.09 ± 0.82 s
